From patent US20130039928A1, “COMPOSITIONS AND METHODS FOR REVERSING CORTICOSTEROID RESISTANCE OR TREATING RESPIRATORY INFECTIONS” (priority 2010, published 2013)
Read-outs that look alike come from different tables or passages of the source. Peptide text beside a SMILES is read from it. * marks the point of attachment. Cbz = O=C(OCc1ccccc1)*

Assays:
[1] = biological target: T1, HDAC2 (Homo sapiens, UniProt Q92769); experiment: Cell-free denitrosylation and activity of HDAC2 (cell lysates, IP-HDAC2); format: biochemical
T1 construct: HDAC2 was immunoprecipitated for analysis of enzymatic activity; endogenous in cells; host or cells: alveolar macrophages from patients with COPD; HDAC2 immunoprecipitated with the Santa Cruz antibody
Description: (§1) HDAC activity was measured using a fluorescent derivative of ε-acetyl-lysine from Enzo life sciences (Farmingdale, N.Y.) according to the manufacturer's recommendations. HDAC2 was immunoprecipitated for analysis of enzymatic activity.
(§2) Macrophage cell or lung tissue extracts were prepared by using 100 μL of immunoprecipitation buffer (50 mM Tris-HCl, pH 8.0, 150 mM NaCl, 1.0% Triton X-100, 0.5% NP-40, 0.1% SDS, 0.5% deoxycholate, and complete protease inhibitor cocktail) from Roche (Morristown, N.J.). The lysis mixture was incubated on ice for 15 minutes and microcentrifuged for 10 minutes at 4° C. Extracts were precleared with 20 μL protein A/G sepharose beads (a 50:50 mix) from Thermo scientific (Rockford, Ill.) and 2 μg of normal IgG. After microcentrifugation, 20 μL of protein A/G sepharose conjugated with 5 μg of antibody was used to precipitate HDAC2 (Santa Cruz Biotechnology, Santa Cruz, Calif.) overnight at 4° C. with rotation. The immune complexes were pelleted with gentle centrifugation, washed twice with 1 mL of immunoprecipitation buffer, and divided equally for the final wash for the activity assay and immunoblotting. For the HDAC assay, immunoprecipitates were resuspended in the activity assay buffer (50 mM TrisHCl, pH 8.0; 10% glycerol; 1 mM dithiothreitol; 0.1 mM EDTA, complete protease inhibitor cocktail). For HDAC2-specific western blotting, immune complexes were washed three times with the immunoprecipitation buffer and finally resuspended in Laemmli buffer for the SDS-PAGE.
S-nitrosylated proteins were detected by using the nitrate/nitrite fluorometric assay kit from Cayman chemicals (Ann Arbor, Mich.) according to the manufacturer's instructions. For HDAC2-specific nitrosylation detection, cells were lysed in buffer (50 mM Tris-HCl, pH 8.0, 150 mM NaCl, 1% Nonidet P-40, 0.5% deoxycholic acid, 0.1% SDS). These lysates were then subjected to immunoprecipitation by using an anti-HDAC2 antibody as described above. The immunoprecipitates were washed twice with lysis buffer and twice with PBS. The pellets were resuspended in 500 μL of PBS. After the addition of 100 μM HgCl2 and 100 μM DAN, the samples were incubated in the dark at 25° C. for 30 minutes, and 1 M NaOH was added. The generated fluorescent triazole from the reaction of the DAN with the NO released from the HDAC2 protein was measured by using an excitation wavelength of 375 nm and an emission wavelength of 450 nm. As a negative control, the antibody alone in lysis buffer was immunoprecipitated. The resulting background fluorescence intensity was subtracted for each experiment.

[2] = biological target: recombinant HDAC2 (rHDAC2) (Homo sapiens, UniProt Q92769); experiment: Cell-free enzymatic activity of recombinant HDAC2; format: biochemical
Description: as §1

[3] = tested on: IL-8 promoter; experiment: ChIP of IL-8 promoter (histone acetylation, HDAC2 binding) in alveolar macrophages; format: cell-based, human
Description: (§3) For inducing corticosteroid resistance, PMs were exposed to cigarette smoke condensate (CSC, 100 μg/ml; Murty Pharmaceuticals, Lexington, Ky.) for 16 h. Exposure to S-nitrosoglutathione (GSNO, 10 μM) was limited to 4 h. […] For assessing corticosteroid responsiveness, macrophages were incubated with dexamethasone (1 μM, Sigma) for 1 h followed by LPS (100 ng/ml, Sigma) for additional 4 h.
Chromatin immunoprecipitation was performed as described previously (Hogg, J. C. & Timens, W., Annu Rev Pathol (2008)). Briefly, cells were fixed in ˜1% formaldehyde in cell growth media for 10 minutes followed by glycine fixation. Cells were then sonicated in ChIP-lysis buffer containing a protease inhibitor cocktail after incubation on ice for 30 minutes. […] sonication, the samples were spun at maximum speed for 12 minutes in a cold microcentrifuge. The supernatants were then addressed as input samples. A part of the input sample was precleared by using a 50% slurry of protein A/G beads prepared in immunoprecipitation (IP) buffer for 2 hours in the cold, following which the beads were centrifuged out and the supernatant was used for IP. Then the precleared samples were incubated with 2 μg of panacetylated histone H4 antibody (ChIP assay kit; Upstate Biotechnology) or anti-HDAC2 antibody from Santa Cruz Biotechnology. As a control, anti-rabbit IgG antibody was added for 1 hour in the cold. The protein A/G bead slurry was added to each reaction and was rotated overnight. The next day, the beads were washed extensively, and the DNA was reverse crosslinked, eluted in elution buffer, and stored at −80° C. until used for sequencing or PCR validation assays. […] This immunoprecipitated DNA was used for PCR amplification by using the specific gene (IL-8 for humans and MCP-1 for mice) promoter PCR assays. PCR primers were used for the IL-8 promoter (forward: 5′-[…]-3′ and reverse: 5′-[…]-3′) and the MCP-1 promoter (forward: 5′-[…]-3′ and reverse: 5′-[…]-3′).

[4] = tested on: HDAC2; format: cell-based, human; conditions: COPD alveolar macrophages
Description: as §3
All immunoblots were performed by using protocols as described previously (Barnes, P. J., N Engl J Med 343, 269-280 (2000)). Rabbit anti-HDAC2 antibody from Santa Cruz Biotechnology (Santa Cruz, Calif.) was used at 1:500 dilutions. Rabbit anti-5-nitroso-cysteine antibody from Alpha diagnostics was used at 1:500 dilutions. Rabbit anti-nitro-tyrosine antibody from Cell Signaling Technology, was used at 1:250 dilution. Rabbit anti-ubiquitin antibody from Santa Cruz Biotechnology (Santa Cruz, Calif.) was used at 1:1000 dilutions. Rabbit anti-GR antibody from Santa Cruz Biotechnology (Santa Cruz, Calif.) was used at a dilution of 1:1000. Rabbit anti-MMP9 antibody from Sigma Aldrich was used at 1:500 dilutions. Rabbit anti-acetyl-lysine antibody from Abcam was used at 1:750 dilutions. Rabbit anti-lamin-B1 from Santa Cruz Biotechnology (Santa Cruz, Calif.) was used at 1:1000 dilutions as a loading control. The Image J program was used for densitometry analyses.
(§4) Total RNA was extracted from the cells by lysis and specific binding to a silica membrance (Qiagen RNeasy kit, Qiagen, Valencia, Calif.), and qRT-PCR was performed by using primers and probe sets for human IL-8, NQO1, GCLM, and iNOS (Assay-on-Demand, Applied Biosystems, Foster City, Calif.). A real-time fluorescent PCR system (ABI 7000 Taqman system, Applied Biosystems) was used to perform these assays. β-actin was used as the normalization control.

[5] = tested on: HDAC2; format: cell-based, human
Description: as §3, §1, §2

[6] = tested on: HDAC2; experiment: Posttranslational modification of HDAC2 in alveolar macrophages (immunoblot, DAN, biotin-switch); format: cell-based, human; conditions: for levels of SNO-HDAC2: GSNO-exposed alveolar macrophages
Description: S-nitrosylation of proteins was analyzed by anti-SNO antibody, biotin switch assay, and or 2,3-diaminonapthalene (DAN) assay. […] Detail methodology is described in supplementary data.
as §2
For HDAC2-specific nitrosylation detection, cells were lysed in buffer (50 mM Tris-HCl, pH 8.0, 150 mM NaCl, 1% Nonidet P-40, 0.5% deoxycholic acid, 0.1% SDS). […] The pellets were resuspended in 500 μL of PBS.
This assay was performed in the dark.
The Image J program was used for densitometry analyses.

[7] = tested on: IL-8; experiment: Corticosteroid responsiveness: basal and LPS-induced IL-8 secretion by alveolar macrophages; format: cell-based, human
Description: as §3
For human IL-8 and mouse IL-6 and MCP-1 proteins, Quantikine ELISA kits from R&D systems (Minneapolis, Minn.) were used according to the manufacturer's instructions.

[8] = tested on: NO; experiment: NO levels and iNOS expression in alveolar macrophages; format: cell-based, human; conditions: COPD alveolar macrophages, vs vehicle
Description: as §3, §1, §4

[9] = tested on: glutathione; experiment: Intracellular glutathione levels in COPD macrophages; format: cell-based, human; conditions: COPD alveolar macrophages
[10] = tested on: Pseudomonas aeruginosa; experiment: Clearance of bacteria in vitro by alveolar macrophages (PA); format: cell-based; conditions: COPD alveolar macrophages
Description: Human alveolar macrophages were purified from individual BAL samples by centrifugation and seeded onto 6-well tissue culture plates. After incubation for 2 h, non-adherent cells were removed and the adherent cells were incubated with R, S-sulforaphane (5 μM; LKT Laboratories, Inc., St. Paul, Minn.) and or DMSO in RPMI 1640 culture medium with 10% FBS and 1% penicillin-streptomycin (Invitrogen, Carlsbad, Calif.). After 16-20 h, adherent cells were scraped, suspended in RPMI 1640 culture media and plated onto 96-well tissue culture plates for bacterial phagocytosis and clearance assays. […] For MARCO antibody-depletion, alveolar macrophages were incubated with human anti-MARCO antibody (1 μg/ml; (Hycult, Uden, The Netherlands) for 4 hours prior to bacterial challenge.
Sputum isolates of nontypeable H. influenzae and P. aeruginosa obtained from patients with COPD at the Department of Veterans Affairs, Western New York Healthcare System were used (S. Sethi, N. Evans, B. J. Grant, T. F. Murphy, N Engl J Med 347, 465 (Aug. 15, 2002); C. S. Berenson, M. A. Garlipp, L. J. Grove, J. Maloney, S. Sethi, J Infect Dis 194, 1375 (Nov. 15, 2006); T. F. Murphy et al., Am J Respir Crit Care Med 177, 853 (Apr. 15, 2008); T. F. Murphy, A. L. Brauer, A. T. Schiffmacher, S. Sethi, Am J Respir Crit Care Med 170, 266 (Aug. 1, 2004)). For bacterial growth, H. influenzae was cultured on chocolate agar or grown in brain heart infusion broth supplemented with 20 μg/mlNAD and 10 μg/ml hemin at 35° C. in 5% CO2. P. aeruginosa was cultured on LB agar plates or in LB broth at 37° C. For FITC-labeling of bacteria, heat inactivated PA and NTHI (10^9 CFU/ml) were resuspended in 1 ml of labeling buffer (0.1 M NaHCO3, pH 9.2) and incubated with fluorescein isothiocyanate (FITC) (Sigma) under constant stiffing in the dark at room temperature for 1 h. Finally, bacteria were washed three times with PBS and dialyzed overnight against PBS. FITC-labeled bacteria were resuspended with PBS at a concentration of 10^9/ml.
After treatment, macrophages (10^5 cells) were incubated with bacteria (PA or NTHI) for 4 h. Subsequently, 100 μL of cell free culture medium was aseptically plated and cultured on tryptose blood and or chocolate agar plates at 37° C. The number of bacterial colonies was counted after 24 h.

[11] = cell lysates incubated with GSH
[12] = COPD alveolar macrophages, result in words

T1 sequence (Q92769 whole entry): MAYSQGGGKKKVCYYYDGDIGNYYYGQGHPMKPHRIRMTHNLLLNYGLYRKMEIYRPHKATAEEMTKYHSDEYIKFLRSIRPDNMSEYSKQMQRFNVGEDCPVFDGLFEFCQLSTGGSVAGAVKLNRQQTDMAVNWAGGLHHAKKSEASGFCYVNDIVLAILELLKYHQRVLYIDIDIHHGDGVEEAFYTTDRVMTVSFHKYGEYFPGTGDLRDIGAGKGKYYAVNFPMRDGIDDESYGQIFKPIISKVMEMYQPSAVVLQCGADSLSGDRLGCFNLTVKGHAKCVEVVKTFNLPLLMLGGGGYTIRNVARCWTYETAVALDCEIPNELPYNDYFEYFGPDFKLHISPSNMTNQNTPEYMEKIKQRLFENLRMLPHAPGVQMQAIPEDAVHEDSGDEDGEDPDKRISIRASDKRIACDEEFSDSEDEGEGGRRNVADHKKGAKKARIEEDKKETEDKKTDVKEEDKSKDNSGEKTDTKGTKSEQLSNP
Sequence of recombinant HDAC2 (rHDAC2) (Q92769 whole entry, species assumed): as the sequence (Q92769 whole entry) above

Compound: N[C@@H](CCC(=O)N[C@@H](CS)C(=O)NCC(=O)O)C(=O)O [GSH, glutathione]
- S-nitrosylation and enzymatic activity of GSNO-exposed IP-HDAC2 ([1]; after incubation with GSH): reversed by GSH treatment
- HDAC2 activity [1, 11]: concurrent increase in HDAC2 activity
- nitrosylation (DAN assay) [1, 11]: denitrosylation by GSH
- rHDAC2 enzymatic activity after GSNO treatment ([2]; in the presence of GSH): restored by GSH

Compound: CC(C)C[C@@H](C=O)NC(=O)[C@H](CC(C)C)NC(=O)[C@H](CC(C)C)NC(=O)OCc1ccccc1 [MG132] (Cbz-Leu-Leu-Leu-aldehyde)
- HDAC2 binding in the IL-8 promoter ([3]; COPD alveolar macrophages): no increase
- HDAC2 protein levels [4]: increase in total HDAC2 protein
- HDAC2 enzymatic activity [5, 12]: no increase in HDAC2 enzymatic activity

Compound: CC(/C=C/C(=O)NO)=C\[C@@H](C)C(=O)c1ccc(N(C)C)cc1 [TSA, trichostatin]
- basal and LPS-induced histone acetylation in the IL-8 promoter region ([3]; cotreatment with sulforaphane, with and without DEX): ablated sulforaphane repressed basal and LPS-induced histone acetylation

Compound: COC(=O)[C@@H](N)CCCNC(=N)N[N+](=O)[O-] [L-NAME, L-nitroarginine methyl ester]
- tyrosine nitration of HDAC2 (nitrotyrosine-HDAC2) ([6]; immunopurified HDAC2 from alveolar macrophages, compared with vehicle): significantly decreased levels of nitrotyrosine-HDAC2
- DEX's repressive effect on basal and LPS-induced IL-8 expression (DEX responsiveness) ([7]; protein and mRNA): failed
- HDAC2 enzymatic activity [5, 12]: failed to increase HDAC2 enzymatic activity
- NO levels [8]: suppressed NO generation

Compound: CCOC(=O)CNC(=O)[C@H](CS)NC(=O)CC[C@H](N)C(=O)O [GSH-e, GSH-ethyl ester]
- levels of SNO-HDAC2 [6]: significant reduction in the levels of SNO-HDAC2
- intracellular glutathione levels [9]: increased intracellular glutathione levels
- repressive effect of DEX on basal and LPS-induced IL-8 secretion ([7]; GSNO exposed COPD alveolar macrophages, GSH-e 1 mM): significantly increased the repressive effect of DEX
- bacterial clearance [10]: failed to improve bacterial clearance
- HDAC2 enzymatic activity ([5]; treatment after GSNO exposure of alveolar macrophages): significantly elevated HDAC2 enzymatic activity

Compound: CC(=O)N[C@@H](CS)C(=O)O [NAC, N-acetyl cysteine]
- levels of SNO-HDAC2 [6]: failed to ameliorate SNO-HDAC2 levels
- intracellular glutathione levels [9]: increased intracellular glutathione levels
- bacterial clearance [10]: failed to improve bacterial clearance

Compound: N[C@@H](CCC(=O)N[C@@H](CSN=O)C(=O)NCC(=O)O)C(=O)O [GSNO, S-nitrosoglutathione]
- DEX resistance ([7]; GSNO exposure): did not further increase DEX resistance
- LPS-induced IL-8 secretion ([7]; GSNO treatment (10 μM, 4 h)): moderately augmented LPS-induced IL-8 secretion
- S-nitrosylation of IP-HDAC2 ([1]; GSNO exposure): elevated S-nitrosylation
- enzymatic activity of IP-HDAC2 ([1]; GSNO exposure): decreased enzymatic activity
- HDAC2 enzymatic activity [5, 12]: decreased HDAC2 enzymatic activity
- rHDAC2 enzymatic activity ([2]; with GSNO): significantly inhibited rHDAC2 enzymatic activity
